“Also recorded” adds a separate entry of the source.
Tests used:
[1] = system: ovalbumin-induced murine model of asthma; experiment: Inflammatory cell counts in BAL fluid in OVA asthma model; assay type: in vivo, BALB/c mice
Description: All experimental procedures were carried out in accordance with the NIH Guidelines for the Care and Use of Laboratory Animals. Specific pathogen-free (SPF) male BALB/c mice (6-7 weeks of age, 18-22 grams), routinely screened serologically for relevant respiratory pathogens, were maintained in an animal housing facility for 1 week before use and given access to food and water ad libitum. Animals were randomly assigned to the indicated experimental groups, and sensitized with two intraperitoneal (IP) injections (20 μg ovalbumin (OVA) emulsified in 2 mg aluminum hydroxide (an adjuvant) in 200 μl phosphate buffer saline (PBS), pH 7.4), on days 1 and 10.
After another week, the animals were challenged by exposure to ovalbumin (OVA) aerosol (1%, w/v, in PBS) for 30 minutes each day on days 17, 18 and 19, in order to elicit an inflammatory reaction in the lungs characterized by airway hyper-responsiveness (AHR), an influx of inflammatory cells (particularly eosinophils), and increased pulmonary levels of various cytokines and transforming growth factors, protein nitration and lipid peroxidation.
The features of allergic inflammation typically reached their peak a day or two after the final exposure. Mice were then subjected to one of the following treatments: (i) sham-sensitization plus challenge with PBS; (ii) positive control-sensitization plus challenge with OVA; (iii) sensitization plus challenge with OVA and various indicated treatments (e.g., with nitroxide or dexamethasone), including different modes (oral, IP, intranasal, inhalation), time windows (sensitization stage, challenge stage, both stages and after the last challenge), and doses of nitroxide administration.
Bronchoalveolar lavage (BAL) fluid (also referred to herein as “BALf”) and bronchial submucosal inflammation are characteristic features of asthma. Mice were euthanized with an overdose of 50 mg/kg pentobarbital and ice-cold phosphate buffer saline (PBS) (0.6 ml) was instilled into the lungs. BAL fluid was obtained by three aspirations via tracheal cannulation, centrifuged, and the supernatant collected and stored at −70° C. Cell pellets were re-suspended in PBS and 100 μl aliquots placed onto slides and centrifuged (200 g, 4° C., 10 minutes) in a cytospin machine. Induction of oxidative stress was evaluated using a 2′,7′-dichlorofluorescein fluorescence assay, and total IgE, IgG2a, panel of cytokines, transforming growth factors, collagen, protein nitration and lipid peroxidation were measured using commercial kits according to the manufacturer's recommendations. A Sircol™ collagen assay kit was obtained from Biocolor Life Sciences Assays, a protein nitration assay kit was obtained from Abcam, and other assay kits were obtained from PeproTech Asia.
(§1) Control and experimental groups contained 10 mice each. The effects of the nitroxides were investigated by feeding the mice ad libitum a diet of nitroxide-containing chow (1 weight percent) during both ovalbumin (OVA)-induced sensitization and challenging periods (days −2-19), during the sensitization period (days −2-11) or challenge period (days 13-19). Nitroxide-containing chow were prepared by dissolving 500 grams chow in a minimum volume of water containing 5 grams nitroxide and 5 grams commercial chicken soup powder, preparing the chow and drying it at 37° C. (animals were reluctant to eat nitroxide-containing chow until chicken soup powder was added).
3-CP was also administered using 3 daily intraperitoneal (IP) injections (200 μl, 0.15 M, ˜300 mg/kg) 0.5 hour prior to the challenge with OVA aerosol, or by nasal instillation (50 μl, 0.3 M, ˜150 mg/kg) twice a day 0.5 hour prior to the challenge with OVA aerosol and 6 hours later without exceeding its maximally tolerated dose, which has been previously established to be 300-500 mg/kg. Both 3-CP and TPL were non-toxic when administered orally or via IP injection to untreated OVA-challenged mice for 22 days. […]

[2] = Nitroxide concentration measurement by EPR in mouse blood and tissue; assay type: in vivo; details: mice
Description: Electron paramagnetic resonance (EPR) spectroscopy was used to determine residual levels of nitroxide in mouse tissue. Blood samples or tissue samples were diluted with 0.5 ml phosphate buffer (40 mM, pH 7.4) or water, inserted into a flexible capillary placed in a quartz tube installed within the EPR spectrometer cavity and assayed for residual nitroxide. A similar procedure was used to determine the residual nitroxide in tissue homogenates of various organs, which were corrected for blood contamination spectrophotometrically by following the absorption of oxyhemoglobin at 400-600 nm. Measured EPR signals were compared to those of a nitroxide standard solution.
In order to determine total hydroxylamine and nitroxide concentrations, 2 mM K3Fe(CN)6 was added to samples in order to oxidize hydroxylamines to the respective nitroxide, and the nitroxide level was determined by EPR spectroscopy as described hereinabove.
as §1
3-CP was also administered using 3 daily intraperitoneal (IP) injections (200 μl, 0.15 M, ˜300 mg/kg) 0.5 hour prior to the challenge with OVA aerosol, or by nasal instillation (50 μl, 0.3 M, ˜150 mg/kg) twice a day 0.5 hour prior to the challenge with OVA aerosol and 6 hours later without exceeding its maximally tolerated dose, which has been previously established to be 300-500 mg/kg. Both 3-CP and TPL were non-toxic when administered orally or via IP injection to untreated OVA-challenged mice for 22 days.

[3] = oral, 1 weight percent in chow, FIG. 4
[4] = nasal instillation (50 μL, 0.3 M), FIG. 2
[5] = oral administration (1 weight percent nitroxide in chow), FIG. 1
[6] = stated after the oral administration data

With `CC1(C)CC(C(N)=O)C(C)(C)N1[O]` (centres unmarked) [3-CP, 3-Carbamoyl-2,2,5,5-tetramethyl-pyrrolidin-1-oxyl] the “levels of inflammatory cells, oral 3-CP in both periods compared with other regimens” value ([1]; oral 1 weight percent in chow during sensitization and challenge periods, FIG. 5) was “more effective than IP injection or intranasal instillation of 3-CP, oral administration of 3-CP during the sensitization period or challenge period alone, or treatment with dexamethasone; also recorded: more effective than treatment with dexamethasone”, the “BAL inflammatory cell/eosinophil count attenuation, 3-CP compared with TPL” value [1, 3] was “considerably more effective than TPL” and the “effect on OVA-induced increase in total inflammatory cell and eosinophil counts in BAL fluid” value [1, 3] was “attenuated the increase in total inflammatory cell counts and eosinophil counts”. The “residual concentration of the respective hydroxylamine compared with the nitroxide” value ([2]; data not shown) was “higher than those of the therapeutically active nitroxide free radical”, the “absolute concentration in lung tissue relative to blood” value [2, 4] was “about twice the concentration in the blood” and the “half-life of reduction/clearance from blood and lung tissue” value [2, 4] was “about 80 minutes”. The “time course of residual concentration in blood and lung tissue” value [2, 4] was “decreased exponentially with time”, the “blood concentration, 3-CP compared with TPL” value [2, 5] was “higher than TPL blood concentrations” and the “residual concentration of nitroxide in blood” value [2, 5] was “detectable levels”. The “residual concentration in the lungs compared with other organs” value [2, 6] was “significantly higher than in the heart, spleen, liver, kidney and brain” and the “residual concentration in the lungs relative to that in the blood” value [2, 6] was “about 65%”.
